The results in this text go back to patent US11648254B2 (Kumquat Biosciences Inc., priority 2021, dated 2023).

As a reminder, the IC50 is the concentration at which inhibition is half-maximal.

Read-outs that look alike come from different tables or passages of the source.

Assay [1] deals with NCI-H1975 cells (EGFR T790M L858R). Kind of assay: EGFR-SOS cellular inhibition assay (CellTiter-Glo, 3D). The class given is cell-based. The conditions noted are these: Homo sapiens. Background: ATP-based viability assays read luminescence as a measure of living cells.
Assay [2] relates to MIA PaCa-2 cells (K-Ras G12C). Kind of assay: Ras-SOS cellular growth inhibition assay (CellTiter-Glo, 3D). The class given is cell-based. As to conditions: Homo sapiens. The gist of the method: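 Growth read by CellTiter-Glo luminescence about 5 days after dosing with 3-fold dilutions (9 points), added one day post-seeding. Cells: MIA PaCa-2, 3D culture on ultra-low-attachment surface, medium DMEM/Ham's F12 plus 10% FCS and 2.5% horse serum; IC50 by four-parameter fit.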

The target of another assay is SOS1 (Homo sapiens (Human), UniProt Q07889). Briefly: Ras-SOS interaction assay (HTRF). The format is biochemical.
Sequence of SOS1 (Q07889 564-1049): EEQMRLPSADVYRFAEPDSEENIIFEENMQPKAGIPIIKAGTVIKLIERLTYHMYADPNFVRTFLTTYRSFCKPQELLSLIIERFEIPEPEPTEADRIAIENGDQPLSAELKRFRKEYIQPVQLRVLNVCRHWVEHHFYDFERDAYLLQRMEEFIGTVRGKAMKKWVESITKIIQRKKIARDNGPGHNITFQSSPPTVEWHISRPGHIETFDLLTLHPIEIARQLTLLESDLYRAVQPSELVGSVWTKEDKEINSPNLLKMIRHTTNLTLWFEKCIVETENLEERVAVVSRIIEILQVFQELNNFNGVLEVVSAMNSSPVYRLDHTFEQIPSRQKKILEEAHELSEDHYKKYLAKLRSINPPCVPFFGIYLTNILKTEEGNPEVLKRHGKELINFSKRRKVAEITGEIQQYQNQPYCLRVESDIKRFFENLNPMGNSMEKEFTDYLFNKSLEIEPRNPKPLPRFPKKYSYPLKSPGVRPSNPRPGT
[3] abbreviates: 120 h, NCI-H1975, 3D proliferation, about 5 days, read-out: Bio-Cell-Prolif-3D (H1975 IC50).
The mark [4] stands for this setting: MIA PaCa-2, 120 h, MIA PaCa-2, 3D proliferation, about 5 days, read-out: Bio-Cell-Prolif-3D (MiaPaca2 IC50).
The mark [5] stands for this setting: MIA PaCa-2, MIA PaCa-2, read-out: IC50 in inhibiting MIA PaCa-2 cell growth.
Where [6] appears, read: K-RasG13D, read-out: IC50 value against SOS1.
The mark [7] stands for this setting: NCI-H1975, EGFR T790M L858R, read-out: IC50 in inhibiting growth of NCI-H1975 cell line.
[8] abbreviates: K-RasG13D utilized, read-out: IC50 inhibition of SOS.

On to `COc1nc2nc(C)nc(N[C@H](C)c3cccc(C(F)F)c3F)c2cc1N1CCN(C)CC1` [Compound 123, (R)-N-(1-(3-(difluoromethyl)-2-fluorophenyl)ethyl)-7-methoxy-2-methyl-6-(4-methylpiperazin-1-yl)pyrido[2,3-d] pyrimidin-4-amine], for which the IC50 in assay [1] (setting [3]) is not above 1 µM; in assay [2] (setting [4]) it was not above 1 µM; in assay [2] (setting [5]) it was less than 0.5 µM; on SOS1 (setting [6]), less than 0.05 µM.

With `C[C@@H](Nc1ncnc2nc(Cl)c(C3CCS(=O)(=O)CC3)cc12)c1cccc(C(F)(F)F)c1F` [Compound 331, (R)-4-(7-chloro-4-((1-(2-fluoro-3-(trifluoromethyl)phenyl)ethyl)amino)pyrido[2,3-d]pyrimidin-6-yl)tetrahydro-2H-thiopyran 1,1-dioxide], the half-maximal inhibitory concentration (IC50) was not above 1 µM in assay [1] (setting [3]); less than 0.5 µM in assay [1] (setting [7]); not above 1 µM in assay [2] (setting [4]); less than 0.5 µM in assay [2] (setting [5]); less than 0.1 µM on SOS1 (setting [8]); less than 0.05 µM at SOS1 (setting [6]).

Consider `COc1nc2nc(C)nc(N[C@H](C)c3cccc(C(F)F)c3F)c2cc1[C@H]1C[C@@H](NC(=O)C2COC2)C1` [Compound 125, N-((1S,3s)-3-(4-(((R)-1-(3-(difluoromethyl)-2-fluorophenyl)ethyl)amino)-7-methoxy-2-methylpyrido[2,3-d]pyrimidin-6-yl)cyclobutyl)oxetane-3-carboxamide], for which the concentration for half-maximal inhibition (IC50) was not above 1 µM in assay [1] (setting [3]); less than 0.5 µM in assay [1] (setting [7]); not above 1 µM in assay [2] (setting [4]); less than 0.5 µM in assay [2] (setting [5]); less than 0.05 µM at SOS1 (setting [6]).

`CC(C)N1CCN(c2cc3c(N[C@H](C)c4cccc(C(F)F)c4F)ncnc3nc2OC2COC2)CC1` [Compound 413, (R)-N-(1-(3-(difluoromethyl)-2-fluorophenyl)ethyl)-6-(4-isopropylpiperazin-1-yl)-7-(oxetan-3-yloxy)pyrido[2,3-d] pyrimidin-4-amine]: the IC50 in assay [1] (setting [3]) is not above 1 µM; in assay [1] (setting [7]), less than 0.5 µM; in assay [2] (setting [4]), not above 1 µM; in assay [2] (setting [5]), less than 0.5 µM; at SOS1 (setting [8]), less than 0.1 µM; at SOS1 (setting [6]), less than 0.05 µM.

With `Cc1nc(N[C@H](C)c2cccc(C(F)F)c2F)c2cc(C3(C#N)CC3)c(OCC3COC3)nc2n1` [Compound 299, (R)-1-(4-((1-(3-(difluoromethyl)-2-fluorophenyl)ethyl)anrino)-2-methyl-7-(oxetan-3-ylmethoxy)pyrido[2,3-d]pyrimidin-6-yl)cyclopropane-1-carbonitrile], the half-inhibitory concentration (IC50) in assay [1] (setting [3]) was not above 1 µM; in assay [2] (setting [4]), 1 to 10 µM; at SOS1 (setting [8]), less than 0.1 µM; on SOS1 (setting [6]), less than 0.05 µM.

With `C#Cc1nc(N[C@H](C)c2cccc(C(F)F)c2F)c2cc(C3(C#N)CC3)c(OC)nc2n1` [Compound 276, (R)-1-(4-((1-(3-(difluoromethyl)-2-fluorophenyl)ethyl)amino)-2-ethynyl-7-methoxypyrido[2,3-d]pyrimidin-6-yl)cyclopropane-1-carbonitrile], the values for the IC50 (in assay [1] (setting [3]); in assay [2] (setting [4]); on SOS1 (setting [8])) were 1 to 10 µM, 1 to 10 µM and less than 0.1 µM, respectively.

Take `Cc1c([C@@H](C)Nc2ncnc3nc(Cl)c(C4CCS(=O)(=O)CC4)cc23)cccc1C(F)(F)F` [Compound 260, (R)-4-(7-chloro-4-((1-(2-methyl-3-(trifluoromethyl)phenyl)ethyl)amino)pyrido[2,3-d]pyrimidin-6-yl)tetrahydro-2H-thiopyran 1,1-dioxide]: the IC50 is not above 1 µM in assay [1] (setting [3]); less than 0.5 µM in assay [1] (setting [7]); not above 1 µM in assay [2] (setting [4]); less than 0.5 µM in assay [2] (setting [5]); less than 0.1 µM on SOS1 (setting [8]); less than 0.05 µM at SOS1 (setting [6]).

With `CC(C)N1CCC(c2cc3c(N[C@H](C)c4cccc(C(F)(F)C5CCN(C(C)C)CC5)c4)ncnc3nc2Cl)CC1` [Compound 268, (R)-7-chloro-N-(1-(3-(difluoro(1-isopropylpiperidin-4-yl)methyl)phenyl)ethyl)-6-(1-isopropylpiperidin-4-yl)pyrido[2,3-d] pyrimidin-4-amine], the concentration for half-maximal inhibition (IC50) in assay [1] (setting [3]) is not above 1 µM; in assay [1] (setting [7]), less than 0.5 µM; in assay [2] (setting [4]), not above 1 µM; in assay [2] (setting [5]), less than 0.5 µM; on SOS1 (setting [8]), less than 0.1 µM; on SOS1 (setting [6]) it was less than 0.05 µM.

Take `COc1nc2nc(OC[C@H]3CCCN3C)nc(N[C@H](C)c3cccc(C(F)F)c3F)c2cc1C1(C#N)CC1` [Compound 270, 1-(4-(((R)-1-(3-(difluoromethyl)-2-fluorophenyl)ethyl)amino)-7-methoxy-2-(((R)-1-methylpyrrolidin-2-yl)methoxy)pyrido [2,3-d]pyrimidin-6-yl)cyclopropane-1-carbonitrile]: the IC50 in assay [1] (setting [3]) was not above 1 µM; in assay [1] (setting [7]), less than 0.5 µM; in assay [2] (setting [4]), not above 1 µM; in assay [2] (setting [5]), less than 0.5 µM; on SOS1 (setting [8]), less than 0.1 µM; on SOS1 (setting [6]), less than 0.05 µM.

As for `CCN1CCN(c2cc3c(N[C@H](C)c4cccc(C(F)F)c4F)nc(C)nc3nc2OCCN(C)C)CC1` [Compound 255, (R)-N-(1-(3-(difluoromethyl)-2-fluorophenyl)ethyl)-7-(2-(dimethylamino)ethoxy)-6-(4-ethylpiperazin-1-yl)-2-methylpyrido[2,3-d] pyrimidin-4-amine], the 50% inhibitory concentration (IC50) is not above 1 µM in assay [1] (setting [3]), 1 to 10 µM in assay [2] (setting [4]), less than 0.1 µM at SOS1 (setting [8]) and less than 0.05 µM at SOS1 (setting [6]).

With `Cc1c([C@@H](C)Nc2ncnc3nc(Cl)c(C4(C#N)CC4)cc23)cccc1C(F)(F)F` [Compound 364, (R)-1-(7-chloro-4-((1-(2-methyl-3-(trifluoromethyl)phenyl)ethyl)amino)pyrido[2,3-d]pyrimidin-6-yl) cyclopropane-1-carbonitrile], the 50% inhibitory concentration (IC50) in assay [1] (setting [3]) was not above 1 µM; in assay [1] (setting [7]), less than 0.5 µM; in assay [2] (setting [4]), 1 to 10 µM; on SOS1 (setting [8]), 0.1 to 1 µM.

As to `Cc1nc(N[C@H](C)c2cccc(C(F)F)c2F)c2cc(C3CCS(=O)(=O)CC3)c(NC3COC3)nc2n1` [Compound 401, (R)-4-(4-((1-(3-(difluoromethyl)-2-fluorophenyl)ethyl)amino)-2-methyl-7-(oxetan-3-ylamino)pyrido[2,3-d]pyrimidin-6-yl)tetrahydro-2H-thiopyran 1,1-dioxide], the IC50 is not above 1 µM in assay [1] (setting [3]), 1 to 10 µM in assay [2] (setting [4]), less than 0.1 µM at SOS1 (setting [8]) and less than 0.05 µM on SOS1 (setting [6]).

For `COc1nc2nc(C)nc(N[C@H](C)c3cccc(C(F)(F)CN4CCC4)c3F)c2cc1C1(C#N)CC1` [Compound 277, (R)-1-(4-((1-(3-(2-(azetidin-1-yl)-1,1-difluoroethyl)-2-fluorophenyl)ethyl)amino)-7-methoxy-2-methylpyrido [2,3-d]pyrimidin-6-yl)cyclopropane-1-carbonitrile], the IC50 was not above 1 µM in assay [1] (setting [3]); less than 0.5 µM in assay [1] (setting [7]); not above 1 µM in assay [2] (setting [4]); less than 0.1 µM on SOS1 (setting [8]); less than 0.05 µM at SOS1 (setting [6]).

Take `CCN1CCN(c2cc3c(N[C@H](C)c4cccc(C(F)F)c4F)nc(C)nc3nc2OC2COC2)CC1` [Compound 415, (R)-N-(1-(3-(difluoromethyl)-2-fluorophenyl)ethyl)-6-(4-ethylpiperazin-1-yl)-2-methyl-7-(oxetan-3-yloxy) pyrido[2,3-d]pyrimidin-4-amine]: the IC50 in assay [1] (setting [3]) is not above 1 µM; in assay [1] (setting [7]), less than 0.5 µM; in assay [2] (setting [4]), not above 1 µM; in assay [2] (setting [5]), less than 0.5 µM; on SOS1 (setting [8]) it was less than 0.1 µM; at SOS1 (setting [6]), less than 0.05 µM.
